Values of other authors as cited in patent publication US5047247A, “Dispersible tablets of dihydroergotoxine methanesulfonate and of acid addition salts thereof” (LEK, priority 1988, dated 1991).

| Substance | solubility in water, in words |
| --- | --- |
| dihydroergotoxine | poorly soluble in water |
| dihydroergotoxine methanesulphonate | poorly soluble in water |
